# Results published in patent publication US20240277698A1, “METHODS OF USING ALDOSTERONE SYNTHASE INHIBITORS” (CINCOR PHARMA, INC., priority 2021, published 2024).
# Target: T1, aldosterone synthase (Homo sapiens, UniProt P19099)
# T1 construct: synthesized in the adrenal cortex by aldosterone synthase; endogenous in cells; host or cells: adrenal cortex of healthy human subjects (in vivo, oral dosing)
# T1 sequence (P19099 25-503): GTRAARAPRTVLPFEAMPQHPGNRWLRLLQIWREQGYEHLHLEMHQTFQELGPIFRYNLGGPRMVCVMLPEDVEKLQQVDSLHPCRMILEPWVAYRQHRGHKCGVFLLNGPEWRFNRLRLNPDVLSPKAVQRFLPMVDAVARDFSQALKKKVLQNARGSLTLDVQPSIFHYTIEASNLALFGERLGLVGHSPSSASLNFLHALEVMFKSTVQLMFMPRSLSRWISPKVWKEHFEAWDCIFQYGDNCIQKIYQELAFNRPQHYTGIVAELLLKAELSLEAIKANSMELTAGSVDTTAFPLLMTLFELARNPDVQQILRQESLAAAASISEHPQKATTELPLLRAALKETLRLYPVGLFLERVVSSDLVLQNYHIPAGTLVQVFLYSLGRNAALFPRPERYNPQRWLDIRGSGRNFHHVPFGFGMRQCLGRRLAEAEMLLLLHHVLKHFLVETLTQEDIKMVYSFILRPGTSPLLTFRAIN
# Experiment: MAD study: plasma aldosterone and precursors (18-hydroxycorticosterone, corticosterone, 11-deoxycorticosterone)
# Assay type: in vivo
# Conditions: mean; for Plasma 11-deoxycorticosterone, Day −1 predose / Plasma 18-hydroxycorticosterone, Day −1 predose / Plasma aldosterone, Day −1 predose / Plasma corticosterone, Day −1 predose: baseline
# Description: For each subject, the study consisted of: • A screening period of up to 28 days; • A 5-day inpatient run-in period during which subjects adhered to a controlled, standardized diet and underwent baseline PD assessments; • A 15-day inpatient treatment period, during which subjects received (R)-compound 1 or placebo once daily for 10 days while adhering to a controlled, standardized diet, followed by PK and PD sampling over an additional 5 days; and • A follow-up visit 3 days (1 day) after discharge from the clinical unit. • A cortisol stimulation test (Cohorts 1 and 2 only) and standing aldosterone assessment (all cohorts) were performed on Days 1 and 10. Serial blood samples for PK and PD were obtained prior to and at specified time points over 24 hours after dosing on Day 1 as well as prior to and at specified time points over 120 hours after dosing on Day 10. In addition, blood samples for PK were collected prior to dosing on Days 8 and 9. Urine for PK and PD measurements was collected over 24 hours starting just prior to dosing on Day 1 as well as over 120 hours starting just prior to dosing on Day 10. […]
smiles,measurement,setting,value
"CCC(=O)N[C@@H]1CCCc2c(-c3ccc4c(c3)CCC(=O)N4C)cncc21 [(R)-Compound 1, (R)—N-(4-(1-methyl-2-oxo-1,2,3,4-tetrahydroquinolin-6-yl)-5,6,7,8-tetrahydroisoquinolin-8-yl)propionamide]","Plasma 11-deoxycorticosterone, Day −1 predose","0.5 mg QD, normal salt diet",52.625 pg/mL
same,"Plasma 18-hydroxycorticosterone, Day −1 predose","0.5 mg QD, normal salt diet",955.5 pg/mL
same,"Plasma aldosterone, Day −1 predose","0.5 mg QD, normal salt diet",131.588 pg/mL
same,"Plasma corticosterone, Day −1 predose","0.5 mg QD, normal salt diet",4302.5 pg/mL
same,"Plasma 11-deoxycorticosterone, Day 1, 12 hours postdose","0.5 mg QD, normal salt diet",35.900 pg/mL
same,"Plasma 11-deoxycorticosterone, Day 1, predose","0.5 mg QD, normal salt diet",50.938 pg/mL
same,"Plasma 11-deoxycorticosterone, Day 2, predose","0.5 mg QD, normal salt diet",72.950 pg/mL
same,"Plasma 11-deoxycorticosterone, Day 10, 12 hours postdose","0.5 mg QD, normal salt diet",70.813 pg/mL
same,"Plasma 11-deoxycorticosterone, Day 10, 24 hours postdose","0.5 mg QD, normal salt diet",115.663 pg/mL
same,"Plasma 11-deoxycorticosterone, Day 10, predose","0.5 mg QD, normal salt diet",112.375 pg/mL
same,"Plasma 11-deoxycorticosterone, Percent change from Day −1 to Day 10, predose","0.5 mg QD, normal salt diet",161.115%
same,"Plasma 18-hydroxycorticosterone, Day 1, 12 hours postdose","0.5 mg QD, normal salt diet",310.1 pg/mL
same,"Plasma 18-hydroxycorticosterone, Day 1, predose","0.5 mg QD, normal salt diet",943.1 pg/mL
same,"Plasma 18-hydroxycorticosterone, Day 2, predose","0.5 mg QD, normal salt diet",819.6 pg/mL
same,"Plasma 18-hydroxycorticosterone, Day 10, 12 hours postdose","0.5 mg QD, normal salt diet",326.5 pg/mL
same,"Plasma 18-hydroxycorticosterone, Day 10, 24 hours postdose","0.5 mg QD, normal salt diet",1016.4 pg/mL
same,"Plasma 18-hydroxycorticosterone, Day 10, predose","0.5 mg QD, normal salt diet",983.1 pg/mL
same,"Plasma 18-hydroxycorticosterone, Percent change from Day −1 to Day 10","0.5 mg QD, normal salt diet",5.2%
same,"Plasma aldosterone, Day 1, 12 hours postdose","0.5 mg QD, normal salt diet",56.250 pg/mL
same,"Plasma aldosterone, Day 1, predose","0.5 mg QD, normal salt diet",133.013 pg/mL
same,"Plasma aldosterone, Day 2, predose","0.5 mg QD, normal salt diet",80.100 pg/mL
same,"Plasma aldosterone, Day 10, 12 hours postdose","0.5 mg QD, normal salt diet",83.625 pg/mL
same,"Plasma aldosterone, Day 10, 24 hours postdose","0.5 mg QD, normal salt diet",143.338 pg/mL
same,"Plasma aldosterone, Day 10, predose","0.5 mg QD, normal salt diet",152.875 pg/mL
same,"Plasma aldosterone, Percent change from Day −1 to Day 10, predose","0.5 mg QD, normal salt diet",28.841%
same,"Plasma corticosterone, Day 1, 12 hours postdose","0.5 mg QD, normal salt diet",695.6 pg/mL
same,"Plasma corticosterone, Day 1, predose","0.5 mg QD, normal salt diet",3170.0 pg/mL
same,"Plasma corticosterone, Day 2, predose","0.5 mg QD, normal salt diet",4490.0 pg/mL
same,"Plasma corticosterone, Day 10, 12 hours postdose","0.5 mg QD, normal salt diet",1211.4 pg/mL
same,"Plasma corticosterone, Day 10, 24 hours postdose","0.5 mg QD, normal salt diet",5923.8 pg/mL
same,"Plasma corticosterone, Day 10, predose","0.5 mg QD, normal salt diet",4187.5 pg/mL
same,"Plasma corticosterone, Percent change from Day −1 to Day 10, predose","0.5 mg QD, normal salt diet",73.0%
same,"Plasma 11-deoxycorticosterone, Day −1 predose","1.5 mg QD, normal salt diet",43.489 pg/mL
same,"Plasma 18-hydroxycorticosterone, Day −1 predose","1.5 mg QD, normal salt diet",1027.4 pg/mL
same,"Plasma aldosterone, Day −1 predose","1.5 mg QD, normal salt diet",143.100 pg/mL
same,"Plasma corticosterone, Day −1 predose","1.5 mg QD, normal salt diet",3748.3 pg/mL
same,"Plasma 11-deoxycorticosterone, Day 1, 12 hours postdose","1.5 mg QD, normal salt diet",19.656 pg/mL
same,"Plasma 11-deoxycorticosterone, Day 1, predose","1.5 mg QD, normal salt diet",44.711 pg/mL
same,"Plasma 11-deoxycorticosterone, Day 2, predose","1.5 mg QD, normal salt diet",53.344 pg/mL
same,"Plasma 11-deoxycorticosterone, Day 10, 12 hours postdose","1.5 mg QD, normal salt diet",46.733 pg/mL
same,"Plasma 11-deoxycorticosterone, Day 10, 24 hours postdose","1.5 mg QD, normal salt diet",84.767 pg/mL
same,"Plasma 11-deoxycorticosterone, Day 10, predose","1.5 mg QD, normal salt diet",73.322 pg/mL
same,"Plasma 11-deoxycorticosterone, Percent change from Day −1 to Day 10, predose","1.5 mg QD, normal salt diet",104.945%
same,"Plasma 18-hydroxycorticosterone, Day 1, 12 hours postdose","1.5 mg QD, normal salt diet",225.6 pg/mL
same,"Plasma 18-hydroxycorticosterone, Day 1, predose","1.5 mg QD, normal salt diet",991.7 pg/mL
same,"Plasma 18-hydroxycorticosterone, Day 2, predose","1.5 mg QD, normal salt diet",829.3 pg/mL
same,"Plasma 18-hydroxycorticosterone, Day 10, 12 hours postdose","1.5 mg QD, normal salt diet",318.4 pg/mL
same,"Plasma 18-hydroxycorticosterone, Day 10, 24 hours postdose","1.5 mg QD, normal salt diet",1000.1 pg/mL
same,"Plasma 18-hydroxycorticosterone, Day 10, predose","1.5 mg QD, normal salt diet",1047.9 pg/mL
same,"Plasma 18-hydroxycorticosterone, Percent change from Day −1 to Day 10","1.5 mg QD, normal salt diet",6.1%
same,"Plasma aldosterone, Day 1, 12 hours postdose","1.5 mg QD, normal salt diet",27.111 pg/mL
same,"Plasma aldosterone, Day 1, predose","1.5 mg QD, normal salt diet",110.567 pg/mL
same,"Plasma aldosterone, Day 2, predose","1.5 mg QD, normal salt diet",52.933 pg/mL
same,"Plasma aldosterone, Day 10, 12 hours postdose","1.5 mg QD, normal salt diet",41.300 pg/mL
same,"Plasma aldosterone, Day 10, 24 hours postdose","1.5 mg QD, normal salt diet",92.533 pg/mL
same,"Plasma aldosterone, Day 10, predose","1.5 mg QD, normal salt diet",82.144 pg/mL
same,"Plasma aldosterone, Percent change from Day −1 to Day 10, predose","1.5 mg QD, normal salt diet",−37.405%
same,"Plasma corticosterone, Day 1, 12 hours postdose","1.5 mg QD, normal salt diet",635.2 pg/mL
same,"Plasma corticosterone, Day 1, predose","1.5 mg QD, normal salt diet",3988.3 pg/mL
same,"Plasma corticosterone, Day 2, predose","1.5 mg QD, normal salt diet",4413.3 pg/mL
same,"Plasma corticosterone, Day 10, 12 hours postdose","1.5 mg QD, normal salt diet",1417.0 pg/mL
same,"Plasma corticosterone, Day 10, 24 hours postdose","1.5 mg QD, normal salt diet",6065.6 pg/mL
same,"Plasma corticosterone, Day 10, predose","1.5 mg QD, normal salt diet",5677.8 pg/mL
same,"Plasma corticosterone, Percent change from Day −1 to Day 10, predose","1.5 mg QD, normal salt diet",115.1%
same,"Plasma 11-deoxycorticosterone, Day −1 predose","2.5 mg QD, low salt diet",72.688 pg/mL
same,"Plasma 18-hydroxycorticosterone, Day −1 predose","2.5 mg QD, low salt diet",1269.6 pg/mL
same,"Plasma aldosterone, Day −1 predose","2.5 mg QD, low salt diet",272.125 pg/mL
same,"Plasma corticosterone, Day −1 predose","2.5 mg QD, low salt diet",6383.8 pg/mL
same,"Plasma 11-deoxycorticosterone, Day 1, 12 hours postdose","2.5 mg QD, low salt diet",133.300 pg/mL
same,"Plasma 11-deoxycorticosterone, Day 1, predose","2.5 mg QD, low salt diet",83.825 pg/mL
same,"Plasma 11-deoxycorticosterone, Day 10, 12 hours postdose","2.5 mg QD, low salt diet",204.250 pg/mL
same,"Plasma 11-deoxycorticosterone, Day 10, 24 hours postdose","2.5 mg QD, low salt diet",217.975 pg/mL
same,"Plasma 11-deoxycorticosterone, Day 10, predose","2.5 mg QD, low salt diet",164.725 pg/mL
same,"Plasma 11-deoxycorticosterone, Percent change from Day −1 to Day 10, predose","2.5 mg QD, low salt diet",412.560%
same,"Plasma 18-hydroxycorticosterone, Day 1, 12 hours postdose","2.5 mg QD, low salt diet",230.4 pg/mL
same,"Plasma 18-hydroxycorticosterone, Day 1, predose","2.5 mg QD, low salt diet",839.6 pg/mL
same,"Plasma 18-hydroxycorticosterone, Day 10, 12 hours postdose","2.5 mg QD, low salt diet",339.1 pg/mL
